We go through 4 compounds from patent publication US20150352094A1, “USE OF FATTY ACID NIACIN CONJUGATES FOR TREATING DISEASES” (CATABASIS PHARMACEUTICALS, INC., priority 2013, published 2015).

Series [1] concerns FASN (fatty acid synthase). The series can be described thus: SREBP-1c target gene expression in HepG2 cells (real time PCR): FASN. As to conditions: HepG2 cells stimulated with oleate, 50 μM, 6 hours. It counts as cell-based. As to the method: (§1) HepG2 cells (ATCC) were seeded at 20,000 cells per well in 96 well plates. After adhering overnight, growth media (10% FBS in DMEM) was removed and cells were serum starved for 24 hours in DMEM containing 1% fatty acid free bovine serum albumin (BSA, Sigma). […] Cells were incubated for 6 hours and then washed with PBS. RNA was reverse-transcribed using the cells to cDNA reagents according to standard protocols (outlined in Applied Biosystem StepOne Real-time PCR protocols). Real time PCR of transcripts was performed with Taqman assays for the three specific genes FASN (fatty acid synthase), SCD (steroyl CoA desaturase) and ApoA1 (apolipoprotein A1). In all three cases, 18S-VIC® was used as a normalization control.
In general terms: In qPCR the cycle at which signal appears reflects the starting amount.

The subject of series [2] is SCD (steroyl CoA desaturase). The series can be described thus: SREBP-1c target gene expression in HepG2 cells (real time PCR): SCD. It counts as cell-based. As to conditions: HepG2 cells stimulated with oleate, 50 μM, 6 hours. As to the method:
as §1

Series [3] deals with ApoA1 (apolipoprotein A1). As to the kind of experiment: SREBP-1c target gene expression in HepG2 cells (real time PCR): ApoA1. It counts as cell-based. The following applies: HepG2 cells stimulated with oleate, 50 μM, 6 hours. As to the method:
as §1

For series [4], the system named is ApoB secretion in HepG2 cells. The following applies: HepG2 cells, 50, 100 and 200 μM; compared to niacin at 5 mM.
Description: HepG2 cells (ATCC) are seeded at 10,000 cells per well in 96 well plates. After adhering overnight, growth media (10% FBS in DMEM) is removed and cells are serum starved for 24 hours in DMEM containing 0.1% fatty acid free bovine serum albumin (BSA, Sigma). Cells are then treated with a compound. […] All treatments are performed in triplicate. Simultaneous with compound treatment, ApoB secretion is stimulated with addition of 0.1 oleate complexed to fatty acid free BSA in a 5:1 molar ratio. Incubation with a compound and oleate is conducted for 24 hours. Media supernatants are removed and ApoB concentrations are measured using ELISA kits (Mabtech AB). Percent inhibition of ApoB secretion is determined by normalizing data to vehicle treated wells. For a given compound, an IC50 (concentration at which 50% of ApoB secretion is inhibited) can also be determined by using a 4 parameter-fit inhibition curve model (Graph Pad Prism®). In each experiment, cell viability is determined using the ATPlite 1-Step kit (Perkin Elmer), such that compound effects due to cytotoxicity can be monitored.
The test system of series [5] is female APOE*3Leiden mice. As to the kind of experiment: Plasma cholesterol and triglycerides in APOE*3Leiden mice on high cholesterol Western type diet. It counts as in vivo. The following applies: I-8 0.75% w/w in diet, atorvastatin 0.0015% w/w in diet. As to the method: The study was conducted using female APOE*3Leiden mice (groups of each n=10) and one untreated reference control group on chow (n=5). To induce dyslipidemia, a high cholesterol Western type diet containing 1% cholesterol, 15% cacao butter, 40.5% sucrose and 1% corn oil (WTD) was fed to the mice for a total experimental period of 20 weeks (of which 4 weeks are a run-in period).
The dyslipidemic mice were grouped on the basis of plasma cholesterol at t=0 assayed in 4 h fasting blood. Mice with low cholesterol after the run-in period were excluded so that homogenous experimental groups were obtained. A group of reference mice (n=5) remained on a chow diet during the complete study period (normolipidemic reference mice).
This mix was then added to the master mix (containing the rest of the ingredients) and mixed thoroughly. The diet was frozen to −20° C. On the subsequent day, the diet was broken into small pellets (approx 5 g per piece) and freeze dried, and stored in vacuum sealed bags (approx 500 g) at −20° C. until use. The diets were refreshed daily and unused diet was discarded.
EDTA plasma was collected in weeks −4, 0, 2 and 4 weeks.

The test system of series [6] is Healthy human volunteers. The series can be described thus: Plasma triglycerides in healthy human volunteers after NIH high fat breakfast. It counts as in vivo. Here is the method:
Healthy human volunteers were divided into 4 treatment groups. The first treatment group was a placebo group (n=6). The other three groups consisted a single oral dose of compound I-8 at either 300 mg (n=6), 1000 mg (n=7) or 2000 mg (n=4). All subjects were given an NIH high fat breakfast in order to induce an elevated level of triglycerides (In a typical NIH high fat breakfast, 450 calories are derived from fat). Compound I-8 was then administered as a single oral dose at the three indicated doses at three different time points: immediately following the high fat meal, 2 hours following the high fat meal and 4 hours following the high fat meal. At each of the time points, plasma triglyceride levels were determined according to standard protocols. […] Based on these dramatic effects on plasma triglycerides levels, compound I-8 and other fatty acid niacin conjugates disclosed in this invention are useful for the treatment of type I hyperlipoproteinemia and type 5 hyperlipoproteinemia.

For series [7], the system named is Male C57BL/6 mice. The series can be described thus: Liver weight gain induced by Lomitapide 10 mg/kg in mice on high fat cholesterol diet. It counts as in vivo. The text has this:
The objective of this example is to determine if 1-8, a representative compound of the present invention, can abrogate the development of hepatic steatosis induced by oral administration of the MTP inhibitor Lomitapide for 7 days in normal mice.
Male C57BL/6 mice were acclimated to the high fat cholesterol diet (D13093001; 1% cholesterol, 15% cacao butter, 40.5% sucrose and 1% corn oil (Research Diets, Inc. New Brunswick, N.J.) upon arrival at CRO facility. The test diet containing the compound (I-8) sufficient for approx. 3 kg of diet (i.e. 25 g of 1-8 from the invention), was prepared by adding the test compound to melted, hand warm cocoa butter and mixed for 5 min. This mix was then added to the master mix (containing the rest of the ingredients) and mixed thoroughly. The diet was frozen to −20° C. On the subsequent day, the diet was broken into small pellets (approx 5 g per piece) and freeze dried, and stored in vacuum sealed bags (approx 500 g) at −20° C. until used. This diet was designated D13093002. The diets were refreshed daily and unused diet is discarded. Lomitapide delivered via oral gavage formulation (10 mg/kg once daily) or vehicle was dosed as described in Table 1. The volume of each gavage dose delivered (mL/kg) was based on each individual animal's most recent recorded body weight. […]

Series [8] concerns mice. The series can be described thus: Liver weight gain induced by Lomitapide 1 and 3 mg/kg in mice on high fat cholesterol diet (second study). It counts as in vivo. As to conditions: I-8 0.75% in diet from Day -7 with Lomitapide 1 or 3 mg/kg once daily, Days 1-7. Here is the method:
A second study was conducted with a longer predosing of 1-8 (7 days versus 3 days) and lower doses of Lomitapide (1 and 3 mg/kg once daily) as described in Table 2. Starting on Day −7 the animals in Groups 1, 2, and 4 received a high-fat cholesterol diet (D13093001, Research Diets, Inc. New Brunswick, N.J.). Similarly, starting on Day −7 the animals in Groups 3 and 5 received a high-fat cholesterol diet w/0.75% 1-8 (D13093002, Research Diets, Inc.). On day −1 all mice received an oral gavage dose of vehicle. The baseline blood sample were collected from each mouse 90 minutes after the vehicle dose and stored as plasma. The volume of each gavage dose delivered (mL/kg) was based on each individual animal's most recent recorded body weight.
Observations were recorded at least twice daily and at each sample collection time point. The presence or absence of any clinical abnormalities was recorded. Body weights were recorded on Day −7, and daily on Day −1 through Day 7 (AM). Interim blood samples were collected and a terminal blood sample was collected on Day 7 by intracardiac puncture following anesthetization with CO2. Each whole blood sample was transferred into tubes containing sodium heparin anticoagulant and placed on ice until processing. Each whole blood sample was centrifuged at 2200×g for 10 minutes at 5° C.+3° C. to isolate plasma. […]

Series [9] has as its system ApoB secretion in HepG2 cultures. The following applies: media supernatants of HepG2 cultures (Jin et al. 1999); cited from earlier work.
Series [10] relates to ApoA1 secretion in HepG2 cultures. As to conditions: media supernatants of HepG2 cultures (Jin et al. 1997); cited from earlier work.

Consider `CC/C=C\C/C=C\C/C=C\C/C=C\C/C=C\C/C=C\CCC(=O)NCCNC(=O)c1cccnc1` [Compound I-7, N-(2-(4Z,7Z,10Z,13Z,16Z,19Z)-docosa-4,7,10,13,16,19-hexaenamidoethyl)nicotinamide], for which the FASN gene expression entry in [1] is “statistically significant inhibition”. In addition, the SCD gene expression entry in series [2] was “statistically significant inhibition”. Besides, the ApoA1 gene expression result in series [3] is on record as “increase”. In [4], the “inhibition of ApoB secretion” value is “significant inhibition”.
For the compound `CC/C=C\C/C=C\C/C=C\C/C=C\C/C=C\CCCC(=O)NCCNC(=O)c1cccnc1` [Compound I-8, N-(2-(5Z,8Z,11Z,14Z,17Z)-eicosa-5,8,11,14,17-pentaenamidoethyl)nicotinamide], the FASN gene expression result in [1] is reported as “statistically significant inhibition”. The SCD gene expression result in series [2] is “statistically significant inhibition”. Besides, the ApoA1 gene expression result in series [3] is “increase”. For the same compound, the plasma cholesterol result in series [5] (after 4 weeks of treatment) was “Comparable level of cholesterol reduction”; in [5] (t=2 weeks of treatment), “statistically significant reduction”. Moreover, the plasma triglycerides entry is given as “significant reduction” in [5] (after 4 weeks of treatment); “significant reduction” in series [6] (single oral dose 1000 mg, after NIH high fat breakfast); “significant reduction” in [6] (single oral dose 2000 mg, after NIH high fat breakfast). The reduction in triglycerides entry in series [6] (2 hour time point following the high fat meal) and in [6] (4 hour time point following the high fat meal) was “robust signal was still observed” throughout. Further, in series [6] (single oral dose 300, 1000 or 2000 mg, after NIH high fat breakfast), the “effect on plasma triglycerides” value was “dose-dependent effect”. For the same compound, the “Lomitapide-increased liver weight on cotreatment” value in series [7] (I-8 0.75% in diet with Lomitapide 10 mg/kg once daily, 7 days) is recorded as “completely abrogated”; in [8] it was “reduced”.
`O=C(NC1CCN(CCCCC2(C(=O)NCC(F)(F)F)c3ccccc3-c3ccccc32)CC1)c1ccccc1-c1ccc(C(F)(F)F)cc1` [Lomitapide, reference compound]: the “increase in liver weight” value in [7] (Lomitapide alone 10 mg/kg once daily oral gavage, one week, high fat cholesterol diet) is recorded as 15%.
Turning to `O=C(O)c1cccnc1` [niacin], in series [9], the “secretion of ApoB” value is recorded as “inhibiting”. The “secretion of ApoA1” value in series [10] is listed as “increase”.
